Measurements as given in patent US20110098278A1 (priority 2009, published 2011).
“And” between values parts separate entries of the source, which are not always exact repeats. Equal entries are not always repeated. Structures can show the parent of a compound that is named as a salt. Where two headings read alike, the source gives them in different places.

What was measured:
[1] = biological target: T1, human acetylcholine esterase (Homo sapiens, UniProt P22303); experiment: Human acetylcholine esterase inhibition (human recombinant, HEK-293 cells; Ellman photometry); format: biochemical; conditions: for inhibitory action toward human acetylcholine esterase (in words): in contrast to galantamine
T1 construct: host or cells: HEK-293 cells
T1 sequence (P22303 32-614): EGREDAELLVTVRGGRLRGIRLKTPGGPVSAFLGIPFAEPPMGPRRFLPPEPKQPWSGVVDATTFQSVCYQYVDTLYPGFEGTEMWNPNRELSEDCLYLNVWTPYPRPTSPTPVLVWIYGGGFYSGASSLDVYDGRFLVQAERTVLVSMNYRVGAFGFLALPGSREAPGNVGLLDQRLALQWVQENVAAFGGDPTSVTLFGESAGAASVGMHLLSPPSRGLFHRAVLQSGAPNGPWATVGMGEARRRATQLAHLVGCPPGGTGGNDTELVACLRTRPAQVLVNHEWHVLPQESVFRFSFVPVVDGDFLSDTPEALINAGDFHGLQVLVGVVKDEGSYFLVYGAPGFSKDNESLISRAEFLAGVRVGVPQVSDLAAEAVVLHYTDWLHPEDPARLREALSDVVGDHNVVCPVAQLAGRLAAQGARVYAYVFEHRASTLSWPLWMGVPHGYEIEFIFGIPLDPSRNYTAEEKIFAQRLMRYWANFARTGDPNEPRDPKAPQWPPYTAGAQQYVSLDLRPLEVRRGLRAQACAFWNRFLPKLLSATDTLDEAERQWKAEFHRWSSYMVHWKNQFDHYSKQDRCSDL

[2] = test system: Sprague Dawley rat; experiment: PICA behavior (kaolin consumption) in the Sprague Dawley rat as surrogate for emesis; format: in vivo
Experimental: This is a well established model for this purpose in the rat (Takeda N et al (1993) 45 817-21).
Once determined, a comparison was made of the effects of these doses on kaolin consumption over a 0-96 hour period in 24 h increments.
In detail groups of 10 male Sprague Dawley rats were habituated to kaolin for 3 days, then singly housed in grid-bottomed cages and habituated for a further 2 days prior to dosing. On the day of drug administration, the animals were food-deprived for 1 h prior to dosing. […] Access to a weighed quantity of food and kaolin was then restored. Food and kaolin was weighed 24, 48, 72 and 96 h after dosing.

[3] = test system: human stomach circular smooth muscle; experiment: Ex vivo human stomach circular smooth muscle, electrical field stimulation; format: cell-based; conditions: human stomach strips under EFS; 100 nM to 100 μM
[4] = test system: ferret; experiment: Emetic activity (retching and vomiting) in the ferret
[5] = test system: rabbit stomach circular smooth muscle; experiment: Ex vivo rabbit stomach circular smooth muscle, electrical field stimulation; format: cell-based; conditions: rabbit stomach strips under EFS; 100 nM to 100 μM
[6] = 40 mg/kg as base p.o., 2 hr. observation, individual ferrets
[7] = 20 mg (free base)/kg oral or similar molar dose
[8] = human recombinant (HEK-293 cells), AMTCh 50 μM, 30 min./37° C., read-out: IC50 for inhibition of human acetyl choline esterase
[9] = USP SGF pH 1.2, 37 deg. C., 0 hours
[10] = USP SGF pH 1.2, 37 deg. C., 1 hour
[11] = USP SIF pH 6.8, 37 deg. C., 0 hours
[12] = USP SIF pH 6.8, 37 deg. C., 2 hours
[13] = 20 mg/kg p.o., 2 hr. observation, individual ferrets, listed as Galantamine valine ester tartrate

COc1ccc2c3c1O[C@H]1C[C@@H](OC(=O)CCC(=O)N[C@H](C(=O)O)C(C)C)C=C[C@@]31CCN(C)C2.O=C(O)C(F)(F)F [Galantamine succinyl valine ester, galantamine-[succinyl-(S)-valine]ester trifluoroacetate]
IC50 [1]: > 100 µM
inhibitory action toward human acetylcholine esterase (in words) [1]: significantly less inhibitory actions
Cumulative mean ± SD kaolin consumption ([2]; 11.75 mg galantamine free base content/kg po, 24 h): 0.14 ± 0.20 g
Cumulative mean ± SD kaolin consumption ([2]; 11.75 mg galantamine free base content/kg po, 48 h): 0.29 ± 0.24 g
Cumulative mean ± SD kaolin consumption ([2]; 11.75 mg galantamine free base content/kg po, 72 h): 0.48 ± 0.27 g
Cumulative mean ± SD kaolin consumption ([2]; 11.75 mg galantamine free base content/kg po, 96 h): 0.57 ± 0.40 g
Cumulative mean ± SD kaolin consumption ([2]; 23.5 mg galantamine free base content/kg po, 24 h): 0.31 ± 0.53 g
Cumulative mean ± SD kaolin consumption ([2]; 23.5 mg galantamine free base content/kg po, 48 h): 0.61 ± 0.69 g
Cumulative mean ± SD kaolin consumption ([2]; 23.5 mg galantamine free base content/kg po, 72 h): 0.95 ± 0.96 g
Cumulative mean ± SD kaolin consumption ([2]; 23.5 mg galantamine free base content/kg po, 96 h): 1.25 ± 1.31 g
Cumulative mean ± SD kaolin consumption ([2]; 47 mg galantamine free base content/kg po, 24 h): 0.15 ± 0.18 g
Cumulative mean ± SD kaolin consumption ([2]; 47 mg galantamine free base content/kg po, 48 h): 0.40 ± 0.18 g
Cumulative mean ± SD kaolin consumption ([2]; 47 mg galantamine free base content/kg po, 72 h): 0.63 ± 0.28 g
Cumulative mean ± SD kaolin consumption ([2]; 47 mg galantamine free base content/kg po, 96 h): 0.91 ± 0.45 g
Cumulative mean ± SD kaolin consumption ([2]; 47 mg galantamine free base content/kg po, 96 h, listed as GSVE): 0.91 ± 0.45 g
kaolin consumption compared with vehicle alone (in words) ([2]; oral, up to 47 mg (galantamine free base content)/kg): little evidence for any increase in kaolin consumption
stimulation of smooth muscle contractions (change in force production) [3]: complete absence of any such effect
Time (min) to onset of: Retching [4, 6]: >120 min
Time (min) to onset of: Vomiting [4, 6]: >120 min
Total number of individual incidences of: Retching [4, 6]: 0
Total number of individual incidences of: Vomiting [4, 6]: 0
Time (min) to onset of: Retching ([4]; 40 mg/kg as base p.o., Mean): >120 min
Time (min) to onset of: Vomiting ([4]; 40 mg/kg as base p.o., Mean): >120 min
Total number of individual incidences of: Retching ([4]; 40 mg/kg as base p.o., Mean): 0
Total number of individual incidences of: Vomiting ([4]; 40 mg/kg as base p.o., Mean): 0
retching or vomiting (in words) ([4]; oral 40 mg galantamine (free base equivs)/kg): no retching or vomiting at all was observed
stimulation of smooth muscle contractions (change in force production) [5]: complete absence of any such effect

galantamine-(S)-valine ester tartrate
animals dosed that retched [4, 7]: 45%
animals dosed that vomited [4, 7]: 18%

COc1ccc2c3c1O[C@H]1C[C@@H](OC(=O)NCc4ccc(C(=O)O)cc4)C=C[C@@]31CCN(C)C2 [Galantamine para-amino methyl benzoic acid carbamate]
IC50 [1, 8]: 46 µM
% Prodrug Remaining [9]: 100%
% Prodrug Remaining [10]: 100%
% Prodrug Remaining [11]: 100%
% Prodrug Remaining [12]: 100%

COc1ccc2c3c1O[C@H]1C[C@@H](OC(=O)[C@@H](N)C(C)C)C=C[C@@]31CCN(C)C2 [Galantamine-(S)-valine ester, galantamine-(S)-valine ester tartrate]
Total number of individual incidences of: Retching ([4]; 20 mg/kg p.o. (galantamine free base content), 2 hr. observation, individual ferrets, listed as Galantamine valine ester tartrate): 22 and 0 (6×) and 2 (2×) and 3 and 14
Total number of individual incidences of: Retching ([4]; 20 mg/kg p.o., 2 hr. observation, Mean): 3.9
Time (min) to onset of: Retching [4, 13]: 35 min and >120 min (6×) and 106 min and 11 min and 9 min and 6 min
Time (min) to onset of: Vomiting [4, 13]: 44 min and >120 min (9×) and 9 min
Total number of individual incidences of: Vomiting [4, 13]: 1 and 0 (9×) and 3

COc1ccc2c3c1O[C@H]1C[C@@H](OC(=O)Nc4ccc(C(=O)O)cn4)C=C[C@@]31CCN(C)C2 [Galantamine para-amino nicotinic acid carbamate]
IC50 [1, 8]: 55 µM
% Prodrug Remaining [9]: 100%
% Prodrug Remaining [10]: 100%
% Prodrug Remaining [11]: 100%
% Prodrug Remaining [12]: 100%

[Cl-].[Li+] [LiCl]
Cumulative mean ± SD kaolin consumption ([2]; positive control, 130 mg base/kg po, 24 h): 3.33 ± 1.98 g
Cumulative mean ± SD kaolin consumption ([2]; positive control, 130 mg base/kg po, 48 h): 3.71 ± 2.22 g
Cumulative mean ± SD kaolin consumption ([2]; positive control, 130 mg base/kg po, 72 h): 4.42 ± 2.82 g
Cumulative mean ± SD kaolin consumption ([2]; positive control, 130 mg base/kg po, 96 h): 4.82 ± 3.11 g

galantamine (glutaryl-PABA) ester trifluoroacetate [Galantamine [glutaryl-PABA] ester]
% Prodrug Remaining (FaSSIF (pH 6.5), 37 deg. C., 0 hours): 96%
% Prodrug Remaining (FaSSIF (pH 6.5), 37 deg. C., 2 hour): 86%
% Prodrug Remaining (FeSSIF (pH 6.5), 37 deg. C., 0 hours): 85%
% Prodrug Remaining (FeSSIF (pH 6.5), 37 deg. C., 2 hours): 90%

COc1ccc2c3c1O[C@H]1C[C@@H](OC(=O)CCCC(=O)Nc4ccc(C(=O)O)cc4)C=C[C@@]31CCN(C)C2 [Galantamine [glutaryl-PABA] ester, galantamine (glutaryl-PABA) ester trifluoroacetate]
IC50 [1]: > 100 µM
inhibitory action toward human acetylcholine esterase (in words) [1]: significantly less inhibitory actions

COc1ccc2c3c1O[C@H]1C[C@@H](OC(=O)Nc4ccc(C(=O)O)cc4)C=C[C@@]31CCN(C)C2 [Galantamine para amino benzoic acid carbamate]
IC50 [1, 8]: 32 µM
% Prodrug Remaining [9]: 100-%
% Prodrug Remaining [10]: 100%
% Prodrug Remaining [11]: 100%
% Prodrug Remaining [12]: 100%

COc1ccc2c3c1O[C@H]1C[C@@H](OC(=O)Nc4cccc(C(=O)O)c4)C=C[C@@]31CCN(C)C2 [Galantamine meta amino benzoic acid carbamate]
IC50 [1, 8]: 26 µM
% Prodrug Remaining [9]: 100%
% Prodrug Remaining [10]: 100%
% Prodrug Remaining [11]: 100%
% Prodrug Remaining [12]: 100%

COc1ccc2c3c1O[C@H]1C[C@@H](OC(=O)N[C@@H](Cc4ccccc4)C(=O)O)C=C[C@@]31CCN(C)C2 [Galantamine phenylalanine carbamate, galantamine-(S)-phenylalanine carbamate trifluoroacetate]
% Prodrug Remaining [9]: 94.7%
% Prodrug Remaining [10]: 94.7%
% Prodrug Remaining [11]: 95.9%
% Prodrug Remaining [12]: 95.6%
